Test results as given in patent US11584709B2, “Multitarget drug for treating diseases in mammals” (“PHARMENTERPRISES EURASIA” LIMITED LIABILITY COMPANY, priority 2017, dated 2023).

What was measured:
[1] = tested on: imiquimod-induced ear psoriasis; assay: Mouse model of imiquimod-induced ear psoriasis; format: in vivo, female balb/c mice; conditions: for The gain in the thickness of the right (affected) ear relatively day 0: 0.3% ointment, M ± m, n = 10
Experimental: Psoriasis was simulated in female balb/c mice by applying Aldar cream (5% imiquimod) on the inner side of the right ear daily 1 time per day for 10 days (J Immunol. 2009 May 1; 182(9):5836-45). Vaseline was applied to intact animals: 20 mg on the right ear.
The assessment of the development of pathology was performed on 2nd, 4th, 6th, 8th and 10th day before the next application of Aldar cream by measuring the thickness of the left and right ears.

[2] = target: T1, tachykinin receptor type 2 (NK2R) (Homo sapiens, UniProt P21452); assay: Activity of tachykinin receptor type 2 (NK2R), intracellular calcium, CHO cells; format: cell-based; conditions: antagonist, [Nleu10]-NKA-(4-10) (10 nM) agonist
T1 construct: expressed in transfected cells; host or cells: CHO cells
T1 sequence (P21452 1-398): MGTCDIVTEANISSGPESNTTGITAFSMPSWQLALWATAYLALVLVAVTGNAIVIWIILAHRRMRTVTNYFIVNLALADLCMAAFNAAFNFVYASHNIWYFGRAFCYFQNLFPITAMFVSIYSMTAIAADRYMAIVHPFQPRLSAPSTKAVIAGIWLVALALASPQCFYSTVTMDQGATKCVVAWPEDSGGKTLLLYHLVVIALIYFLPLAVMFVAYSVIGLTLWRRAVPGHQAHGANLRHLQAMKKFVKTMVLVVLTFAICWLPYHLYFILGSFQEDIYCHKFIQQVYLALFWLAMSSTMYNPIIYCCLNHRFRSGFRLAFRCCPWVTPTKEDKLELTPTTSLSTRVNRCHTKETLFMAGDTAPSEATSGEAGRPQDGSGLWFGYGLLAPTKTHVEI
Experimental: Compound 1 was dissolved in DMSO to a concentration of 100 mM; then a stock solution was serially diluted with DMSO. The maximum starting concentration of the substance is 100 μM. The effect was determined at 5 concentrations of the tested compounds, each concentration was studied twice. CHO cells expressing NK2R were used in the experiment, said sells, after the preincubation with an [Nleu10]-NKA-(4-10) (10 nM) agonist, were incubated with the test compound. The activity of receptors was determined according to the intracellular calcium concentration by fluorescence spectroscopy (Biochem Biophys Res Commun. 1994 May 16; 200(3):1512-20).

[3] = Pharmacokinetics in blood plasma after oral administration; format: in vivo; conditions: rats, 3 mg/kg, 24 hours sampling, HPLC-MS/MS, limit of quantitation 1 ng/ml
Experimental: To confirm low systemic availability of Compound 1, the study pharmacokinetics and bioavailability of Compound 1 after oral administration to rats in a dose of 3 mg/kg was conducted. Sampling of blood from animals was performed at specified time points for 24 hours after the drug administration. The content of Compound 1 in plasma samples was analyzed by HPLC-MS/MS, the limit of quantitation was 1 ng/ml.

[4] = target: T2, prokineticin receptor type 2 (PK2) (Homo sapiens, UniProt Q8NFJ6); assay: Activity of prokineticin receptors type 2 (PK2), intracellular calcium, HEK-293 cells; format: cell-based; conditions: antagonist, PK2 agonist (2 nM)
T2 construct: expressed in transfected cells; host or cells: HEK-293 cells
Experimental: Compound 1 was dissolved in DMSO to a concentration of 100 mM; then a stock solution was serially diluted with DMSO. The maximum starting concentration of the substance is 100 μM. The effect was determined at 5 concentrations of the tested compounds, each concentration was studied twice. HEK-293 cells expressing prokinetycin receptors PK2 were used in the experiment, these cells, after preincubation with a PK2 agonist (2 nM), were incubated with the test compound. The activity of receptors was determined according to the intracellular calcium concentration by the fluorescence spectroscopy (Mol Pharmacol. 2005 June; 67(6):2070-6).

[5] = Stability in blood plasma, pygmy hog; format: in vitro ADME; conditions: 1 μM, 37° C.
Experimental: (§1) Compound 1 at a concentration of 1 μM was incubated for 24 hours in the blood plasma of human and various animal species (rats, mice, guinea pigs, rabbits, horses, dogs, bull, pygmy hogs) at 37° C. Aliquots were taken at time points of 0, 0.25, 1, 2, 4, 8 and 24 hours. In the case of blood plasma of rabbits and monkeys, Compound 1 was incubated for 4 hours, and aliquots were taken at time points 0, 0.25, 1, 4. After the protein precipitation with acetonitrile, samples were analyzed by HPLC-MS/MS to determine the concentration of Compound 1. Verapamil was used as a stable control.

[6] = Stability in blood plasma, rat; format: in vitro ADME; conditions: for Content, % from the initial, Mean (n = 2): rat blood plasma, 1 μM, 37° C.
Experimental: as §1

[7] = tested on: model of Crohn's disease; assay: Mouse model of Crohn's disease (TNBS); format: in vivo, male balb/c mice
Experimental: The study was performed on male balb/c mice. Animals, which starved for 24 hours, were injected with 150 μl/mouse of TNBS solution in 50% ethanol into the rectal hole of the mouse to the depth of 4 cm using a 3.5 F catheter. Next, the mice were turned upside down and held for 60 seconds. 150 μl of the 50% ethanol solution was injected into the healthy control (intact animals). The study lasted 7 days. The development of pathology was assessed by the death of animals.

[8] = Chronic (90-day) oral administration, body weight of rabbits; format: in vivo, Chinchilla rabbits; conditions: for period in which the lag in body weight gain was observed: female rabbits, daily intragastric
Experimental: The effect of 90-day, oral administration of Compound 1 in doses of 1.5 mg/kg, 7.5 mg/kg and 15 mg/kg on the body weight of male and female Chinchilla rabbits was studied.

[9] = 90-day oral, 1.5, 7.5 and 15 mg/kg, male and female rabbits

T2 sequence (Q8NFJ6 whole entry): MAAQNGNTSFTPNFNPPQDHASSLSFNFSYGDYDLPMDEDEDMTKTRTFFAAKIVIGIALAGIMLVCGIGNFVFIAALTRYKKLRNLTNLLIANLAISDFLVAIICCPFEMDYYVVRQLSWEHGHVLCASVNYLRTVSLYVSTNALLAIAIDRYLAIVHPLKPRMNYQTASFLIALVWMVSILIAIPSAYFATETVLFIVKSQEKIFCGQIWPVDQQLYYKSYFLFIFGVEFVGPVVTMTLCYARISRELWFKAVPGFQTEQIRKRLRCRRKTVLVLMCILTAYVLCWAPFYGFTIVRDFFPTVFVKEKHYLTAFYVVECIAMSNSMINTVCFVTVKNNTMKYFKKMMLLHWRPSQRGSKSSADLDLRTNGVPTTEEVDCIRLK

In the case of `O=C(Cc1ccc(O)cc1)N[C@@H](Cc1ccccc1)C(=O)OCc1ccccc1` [Compound 1, benzyl (2S)-2-[2-(4-hydroxyphenyl)acetamido]-3-phenylpropanoate], the “The gain in the thickness of the right (affected) ear relatively day 0” value (“The gain … (affected) ear relatively day 0” for short) ([1]; day 2) is reported as 14.1%, the “The gain … (affected) ear relatively day 0” value ([1]; day 4) is reported as 22.1% and the “The gain … (affected) ear relatively day 0” value ([1]; day 6) is reported as 28.0%. The “The gain … (affected) ear relatively day 0” value ([1]; day 8) was 19.4%, the “The gain … (affected) ear relatively day 0” value ([1]; day 10) was 7.9% and the “reduction of the gain in the thickness of the right (affected) ear (in words)” value ([1]; summary of table 1) was “to the level of intact animals”. The IC50 [2] was 8.4 µM, the “content in blood plasma after oral administration” value [3] was “not detected” and the IC50 [4] was 5.4 µM. For the same compound, the “Content, % from the initial, Mean (n = 2)” value (“Content, % from the initial” for short) ([5]; 0 hour) was 100%, the “Content, % from the initial” value ([5]; 0.25 hour) was 92.6% and the “Content, % from the initial” value ([5]; 1 hour) was 61.8%. For the same compound, the “Content, % from the initial” value ([5]; 2 hour) was 35.9%, the “Content, % from the initial” value ([5]; 4 hour (so in the source)) was 2.68% and the “Content, % from the initial” value ([5]; time cell empty (last line)) was 0.15%. For the same compound, the “Content, % from the initial” value ([5]; time cell empty (line after 2 hour)) was 15.9%, the “hydrolysis in the blood plasma (in words)” value ([6]; blood plasma of rats, after 15 minutes) was “almost completely hydrolyzed” and the “Content, % from the initial” value ([6]; 0 hour) was 100%. For the same compound, the “Content, % from the initial” value ([6]; 0.25 hour) was 0.00%, the “Content, % from the initial” value ([6]; 1 hour) was 0.00% and the “Content, % from the initial” value ([6]; 2 hour) was 0.00%. For the same compound, the “Content, % from the initial” value ([6]; 4 hour) was 0.00%, the “Content, % from the initial” value ([6]; 8 hour) was 0.00% and the “Content, % from the initial” value ([6]; 24 hour) was 0.00%. The “The portion of dead animals” value ([7]; 50 mg/kg, 1 time per day, TNBS, 7 days, 10 animals) was 30%, the “decrease of the death of animals” value ([7]; summary of Table 4) was “more than 2 times” and the “general condition, appearance, and mobility” value [8, 9] was “satisfactory and did not differ in the experimental and control groups”. The “weight gain compared with parallel controls” value [8, 9] was “somewhat lagging behind in weight gain”, the “feed and water intake” value ([8]; accompanying the decrease in body weight gain) was “decrease in feed and water intake” and the “period in which the lag in body weight gain was observed” value ([8]; 7.5 mg/kg) was “practically, during the entire period of the drug administration”. The “period in which the lag in body weight gain was observed” value ([8]; 15 mg/kg) was “practically, during the entire period of the drug administration” and the “dynamics of the body weight in the recovery period” value ([8]; recovery period, control versus experimental animals) was “no differences in the dynamics of the body weight”.
